In ChEMBL document CHEMBL5634115, “Exploring novel anticancer pyrazole benzenesulfonamides featuring tail approach strategy as carbonic anhydrase inhibitors” (Eur J Med Chem, 2023):
pIC50: −log10 of the molar value.

What was measured:
Hs-578T = test: cells; format: functional; conditions: Homo sapiens, time 48 hrs
Description: Cytostatic activity against human Hs-578T cells assessed as total growth inhibition measured after 48 hrs by sulforhodamine B assay

UO-31 = test: cells; format: functional; conditions: Homo sapiens, time 48 hrs
Description: Cytostatic activity against human UO-31 cells assessed as total growth inhibition measured after 48 hrs by sulforhodamine B assay

SNB-19 [1] = test: cells; conditions: Homo sapiens, SNB-19, 48 h, read-out: LC50
Description: Cytotoxicity activity against human SNB-19 cells assessed as reduction in cell growth measured after 48 hrs by sulforhodamine B assay

SNB-75 [2] = test: cells; format: functional; conditions: Homo sapiens, time 48 hrs
Description: Cytostatic activity against human SNB-75 cells assessed as total growth inhibition measured after 48 hrs by sulforhodamine B assay

HCC 2998 = test: cells; format: functional; conditions: Homo sapiens, time 48 hrs
Description: Cytostatic activity against human HCC 2998 cells assessed as total growth inhibition measured after 48 hrs by sulforhodamine B assay

RPMI-8226 = test: cells; format: functional; conditions: Homo sapiens, time 48 hrs
Description: Growth inhibition of human RPMI-8226 cells measured after 48 hrs by sulforhodamine B assay

U-251 = test: cells; format: functional; conditions: Homo sapiens, time 48 hrs
Description: Growth inhibition of human U-251 cells measured after 48 hrs by sulforhodamine B assay

SK-MEL-28 = test: cells; conditions: Homo sapiens, SK-MEL-28, 48 h, read-out: LC50
Description: Cytotoxicity activity against human SK-MEL-28 cells assessed as reduction in cell growth measured after 48 hrs by sulforhodamine B assay

MDA-MB-435 = test: cells; format: functional; conditions: Homo sapiens, time 48 hrs
Description: Cytostatic activity against human MDA-MB-435 cells assessed as total growth inhibition measured after 48 hrs by sulforhodamine B assay

SW-620 [3] = test: cells; format: functional; conditions: Homo sapiens, time 48 hrs
Description: Cytostatic activity against human SW620 cells assessed as total growth inhibition measured after 48 hrs by sulforhodamine B assay

CAKI-1 = test: cells; format: functional; conditions: Homo sapiens, time 48 hrs
Description: Cytostatic activity against human CAKI-1 cells assessed as total growth inhibition measured after 48 hrs by sulforhodamine B assay

SK-MEL-2 = test: cells; conditions: Homo sapiens, SK-MEL-2, 48 h, read-out: LC50
Description: Cytotoxicity activity against human SK-MEL-2 cells assessed as reduction in cell growth measured after 48 hrs by sulforhodamine B assay

SF-295 = test: cells; format: functional; conditions: Homo sapiens, time 48 hrs
Description: Growth inhibition of human SF-295 cells measured after 48 hrs by sulforhodamine B assay

HL-60(TB) [4] = test: cells; conditions: Homo sapiens, HL-60, 48 h, read-out: LC50
Description: Cytotoxicity activity against human HL-60(TB) cells assessed as reduction in cell growth measured after 48 hrs by sulforhodamine B assay

MDA-MB-468 [5] = test: cells; format: functional; conditions: Homo sapiens, time 48 hrs
Description: Cytostatic activity against human MDA-MB-468 cells assessed as total growth inhibition measured after 48 hrs by sulforhodamine B assay

NCI-H460 [6] = test: cells; format: functional; conditions: Homo sapiens, time 48 hrs
Description: Cytostatic activity against human NCI-H460 cells assessed as total growth inhibition measured after 48 hrs by sulforhodamine B assay

M14 = test: cells; conditions: Homo sapiens, M14, 48 h, read-out: LC50
Description: Cytotoxicity activity against human M14 cells assessed as reduction in cell growth measured after 48 hrs by sulforhodamine B assay

SNB-75 [7] = test: cells; conditions: Homo sapiens, SNB-75, 48 h, read-out: LC50
Description: Cytotoxicity activity against human SNB-75 cells assessed as reduction in cell growth measured after 48 hrs by sulforhodamine B assay

PC-3 = test: cells; format: functional; conditions: Homo sapiens, time 48 hrs
Description: Cytostatic activity against human PC-3 cells assessed as total growth inhibition measured after 48 hrs by sulforhodamine B assay

OVCAR-8 [8] = test: cells; format: functional; conditions: Homo sapiens, time 48 hrs
Description: Growth inhibition of human OVCAR-8 cells measured after 48 hrs by sulforhodamine B assay

EKVX [9] = test: cells; conditions: Homo sapiens, 48 h, read-out: LC50
Description: Cytotoxicity activity against human EKVX cells assessed as reduction in cell growth measured after 48 hrs by sulforhodamine B assay

Carbonic anhydrase 12 = Carbonic anhydrase 12 (Homo sapiens, UniProt O43570)
Chain of Carbonic anhydrase 12 (O43570 whole entry): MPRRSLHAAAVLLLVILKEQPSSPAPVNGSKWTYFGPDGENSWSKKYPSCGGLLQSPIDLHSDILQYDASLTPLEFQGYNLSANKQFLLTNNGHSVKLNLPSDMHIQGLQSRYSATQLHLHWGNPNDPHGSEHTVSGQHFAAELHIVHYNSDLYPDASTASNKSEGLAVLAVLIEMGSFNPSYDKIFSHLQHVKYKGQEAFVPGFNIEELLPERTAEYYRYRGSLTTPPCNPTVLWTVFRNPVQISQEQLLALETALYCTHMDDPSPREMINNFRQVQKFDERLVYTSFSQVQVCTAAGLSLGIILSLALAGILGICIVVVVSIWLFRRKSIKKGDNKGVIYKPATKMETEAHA
Description: Inhibition of human carbonic anhydrase 12 preincubated for 15 mins followed by substrate addition and measured after 30 mins by spectrophotometric method

OVCAR-4 = test: cells; conditions: Homo sapiens, OVCAR-4, 48 h, read-out: LC50
Description: Cytotoxicity activity against human OVCAR-4 cells assessed as reduction in cell growth measured after 48 hrs by sulforhodamine B assay

HL-60(TB) [10] = test: cells; format: functional; conditions: Homo sapiens, time 48 hrs
Description: Growth inhibition of human HL-60(TB) cells measured after 48 hrs by sulforhodamine B assay

MDA-MB-231 = test: cells; conditions: Homo sapiens, MDA-MB-231, 48 h, read-out: LC50
Description: Cytotoxicity activity against human MDA-MB-231 cells assessed as reduction in cell growth measured after 48 hrs by sulforhodamine B assay

HOP-92 = test: cells; format: functional; conditions: Homo sapiens, time 48 hrs
Description: Growth inhibition of human HOP-92 cells measured after 48 hrs by sulforhodamine B assay

NCI-H322M [11] = test: cells; format: functional; conditions: Homo sapiens, time 48 hrs
Description: Cytostatic activity against human NCI-H322M cells assessed as total growth inhibition measured after 48 hrs by sulforhodamine B assay

NCI-H460 [12] = test: cells; conditions: Homo sapiens, NCI-H460, 48 h, read-out: LC50
Description: Cytotoxicity activity against human NCI-H460 cells assessed as reduction in cell growth measured after 48 hrs by sulforhodamine B assay

K562 [13] = test: cells; conditions: Homo sapiens, K562, 48 h, read-out: LC50
Description: Cytotoxicity activity against human K562 cells assessed as reduction in cell growth measured after 48 hrs by sulforhodamine B assay

SNB-19 [14] = test: cells; format: functional; conditions: Homo sapiens, time 48 hrs
Description: Growth inhibition of human SNB-19 cells measured after 48 hrs by sulforhodamine B assay

COLO 205 = test: cells; format: functional; conditions: Homo sapiens, time 48 hrs
Description: Growth inhibition of human COLO 205 cells measured after 48 hrs by sulforhodamine B assay

HT-29 = test: cells; conditions: Homo sapiens, HT-29, 48 h, read-out: LC50
Description: Cytotoxicity activity against human HT-29 cells assessed as reduction in cell growth measured after 48 hrs by sulforhodamine B assay

NCI-H522 [15] = test: cells; conditions: Homo sapiens, NCI-H522, 48 h, read-out: LC50
Description: Cytotoxicity activity against human NCI-H522 cells assessed as reduction in cell growth measured after 48 hrs by sulforhodamine B assay

Malme-3M = test: cells; format: functional; conditions: Homo sapiens, time 48 hrs
OVCAR-3 = test: cells; format: functional; conditions: Homo sapiens, time 48 hrs
Description: Cytostatic activity against human OVCAR-3 cells assessed as total growth inhibition measured after 48 hrs by sulforhodamine B assay

SW-620 [16] = test: cells; format: functional; conditions: Homo sapiens, time 48 hrs; remark: listed apart in the source
Description: Growth inhibition of human SW620 cells measured after 48 hrs by sulforhodamine B assay

EKVX [17] = test: cells; format: functional; conditions: Homo sapiens, time 48 hrs
Description: Cytostatic activity against human EKVX cells assessed as total growth inhibition measured after 48 hrs by sulforhodamine B assay

SF-268 = test: cells; format: functional; conditions: Homo sapiens, time 48 hrs
Description: Growth inhibition of human SF-268 cells measured after 48 hrs by sulforhodamine B assay

HCT-15 = test: cells; format: functional; conditions: Homo sapiens, time 48 hrs
Description: Growth inhibition of human HCT-15 cells measured after 48 hrs by sulforhodamine B assay

SK-OV-3 = test: cells; format: functional; conditions: Homo sapiens, time 48 hrs
Description: Growth inhibition of human SK-OV-3 cells measured after 48 hrs by sulforhodamine B assay

SF-539 = test: cells; format: functional; conditions: Homo sapiens, time 48 hrs
Description: Growth inhibition of human SF-539 cells measured after 48 hrs by sulforhodamine B assay

TK-10 [18] = test: cells; format: functional; conditions: Homo sapiens, time 48 hrs
Description: Growth inhibition of human TK-10 cells measured after 48 hrs by sulforhodamine B assay

TK-10 [19] = test: cells; conditions: Homo sapiens, TK-10, 48 h, read-out: LC50
Description: Cytotoxicity activity against human TK-10 cells assessed as reduction in cell growth measured after 48 hrs by sulforhodamine B assay

HOP-62 = test: cells; conditions: Homo sapiens, HOP-62, 48 h, read-out: LC50
Description: Cytotoxicity activity against human HOP-62 cells assessed as reduction in cell growth measured after 48 hrs by sulforhodamine B assay

MDA-MB-468 [20] = test: cells; format: functional; conditions: Homo sapiens, time 48 hrs; remark: listed apart in the source
Description: Growth inhibition of human MDA-MB-468 cells measured after 48 hrs by sulforhodamine B assay

K562 [21] = test: cells; format: functional; conditions: Homo sapiens, time 48 hrs
Description: Growth inhibition of human K562 cells measured after 48 hrs by sulforhodamine B assay

OVCAR-8 [22] = test: cells; conditions: Homo sapiens, OVCAR-8, 48 h, read-out: LC50
Description: Cytotoxicity activity against human OVCAR-8 cells assessed as reduction in cell growth measured after 48 hrs by sulforhodamine B assay

NCI-H522 [23] = test: cells; format: functional; conditions: Homo sapiens, time 48 hrs
Description: Growth inhibition of human NCI-H522 cells measured after 48 hrs by sulforhodamine B assay

T47D = test: cells; format: functional; conditions: Homo sapiens, time 48 hrs
Description: Cytostatic activity against human T47D cells assessed as total growth inhibition measured after 48 hrs by sulforhodamine B assay

NCI-H322M [24] = test: cells; format: functional; conditions: Homo sapiens, time 48 hrs; remark: listed apart in the source
Description: Growth inhibition of human NCI-H322M cells measured after 48 hrs by sulforhodamine B assay

CCOC(=O)c1ccc(N/N=C/c2cn(-c3ccc(S(N)(=O)=O)cc3)nc2-c2ccc(C)cc2)cc1
TGI (Hs-578T): 27.2 µM | TGI (UO-31): 14.8 µM | CC50 (SNB-19 [1]): > 100 µM | TGI (SNB-75 [2]): 46.4 µM | TGI (HCC 2998): 4.23 µM | GI50 (RPMI-8226): 3.24 µM | GI50 (U-251): 4.23 µM | CC50 (SK-MEL-28): 65.8 µM | TGI (MDA-MB-435): 8.96 µM | TGI (SW-620 [3]): 15.6 µM | TGI (CAKI-1): 11.7 µM | CC50 (SK-MEL-2): > 100 µM | GI50 (SF-295): 6.92 µM | CC50 (HL-60(TB) [4]): > 100 µM | TGI (MDA-MB-468 [5]): 16 µM | TGI (NCI-H460 [6]): 2.43 µM | CC50 (M14): 7.31 µM | CC50 (SNB-75 [7]): > 100 µM | TGI (PC-3): 38.1 µM | GI50 (OVCAR-8 [8]): 5.68 µM | CC50 (EKVX [9]): > 100 µM | pIC50 (Carbonic anhydrase 12): 6.81 | CC50 (OVCAR-4): > 100 µM | GI50 (HL-60(TB) [10]): 3.05 µM | CC50 (MDA-MB-231): 58 µM | GI50 (HOP-92): 2.79 µM | TGI (NCI-H322M [11]): 5.38 µM | CC50 (NCI-H460 [12]): > 100 µM | CC50 (K562 [13]): > 100 µM | GI50 (SNB-19 [14]): 4.1 µM | GI50 (COLO 205): 11.2 µM | CC50 (HT-29): > 100 µM | CC50 (NCI-H522 [15]): > 100 µM | GI50 (Malme-3M): 7.32 µM | TGI (OVCAR-3): 7.27 µM | GI50 (SW-620 [16]): 3.66 µM | TGI (EKVX [17]): 3.17 µM | GI50 (SF-268): 4.07 µM | GI50 (HCT-15): 1.87 µM | GI50 (SK-OV-3): 24.4 µM | GI50 (SF-539): 2.55 µM | GI50 (TK-10 [18]): 24.5 µM | CC50 (TK-10 [19]): > 100 µM | CC50 (HOP-62): > 100 µM | GI50 (MDA-MB-468 [20]): 3.51 µM | GI50 (K562 [21]): 2.88 µM | CC50 (OVCAR-8 [22]): > 100 µM | GI50 (NCI-H522 [23]): 2.07 µM | TGI (T47D): > 100 µM | GI50 (NCI-H322M [24]): 5.38 µM
